melting point: 182 °C
SMILES: CCn1ncnc1COc1nn2c(-c3c(F)cccc3F)nnc2cc1C(C)(C)C [Example 3, 3-(2,6-Difluorophenyl)-7-(1,1-dimethylethyl)-6-(2-ethyl-2H-1,2,4-triazol-3-ylmethoxy)-1,2,4-triazolo[4,3-b]pyridazine]

Reference: patent publication US6500828B1, “Triazolo-pyridazine derivatives as ligands for gaba receptors” (Merck Sharp & Dohme Ltd., priority 1999, dated 2002)
